Assay results as given in patent US10060934B2, “Methods for screening patients for resistance to angioinhibition, treatment and prophylaxis thereof” (NANOPHARMACEUTICALS LLC, priority 2013, dated 2018).

How the values were obtained:
integrin αvβ3 = integrin αvβ3 (Homo sapiens, UniProt P05106+P06756); settings: cited from earlier work
[1] = system: basic fibroblast growth factor (bFGF, FGF2), vascular endothelial growth factor (VEGF); settings: in the absence of thyroid hormone; cited from earlier work
glioma cells = settings: in vitro; cited from earlier work
[2] = system: human breast cancer cells; settings: in vitro; cited from earlier work
[3] = system: chick chorioallantoic membrane (CAM); assay: Chick chorioallantoic membrane (CAM) angiogenesis assay; format: in vivo; settings: pro-angiogenic factor alone
Method: Examples of the CAM assay methodology may include the step of providing chick embryos. In some embodiments, the chick embryos may be approximately 10 days old. The chick embryos may be incubated at approximately 37° C. with approximately 55% relative humidity. A hypodermic needle may be used to make a small hole in the shell concealing an air sac, and a second hole may be made on the broad side of the egg, directly over an avascular portion of the embryonic membrane. A false air sac may be created beneath the second hole by the application of negative pressure at the first hole, causing the CAM to separate from the shell. A window, approximately 1.0 cm^2, in size may be cut in the shell over the CAM with a small-crafts grinding wheel, allowing direct access to the underlying CAM. In some embodiments, a pro-angiogenic agent may be provided to induce new blood vessel branches on the CAM of 10-day-old embryos. In the exemplary embodiment, the pro-angiogenic agents may be the endogenous non-peptide pro-angiogenic hormones supplied in the patient's blood sample. The patient's blood sample may subsequently be introduced into the xenograft having a vasculature system in the CAM. The pro-angiogenic agent, the blood or serum sample of the patient along with one or more anti-angiogenic agents may be applied to a sterile disk and followed by allowing the disks to dry. In some embodiments of the CAM assay, Sterile disks of No. 1 filter paper (Whatman International) may be pretreated with approximately 3 mg/mL cortisone acetate and 1 mmol/L of the patient's blood or serum, along with one or more anti-angiogenic agents and air dried under sterile conditions. The disks may then be suspended in phosphate buffered saline (PBS) and placed on growing CAMs. At approximately the 24 hour mark, a mitogen-activated protein kinase (MAPK) cascade inhibitor such as PD 98059 may also be added to CAMs topically by means of the filter disks. Exemplary embodiments having one or more anti-angiogenic agent, may include two, three, four, five or more anti-angiogenic agents, including at least one thyroid hormone antagonist such as tetrac, triac, or conjugated tetrac or triac. After incubation at 37° C. with 55% relative humidity for 3 days, the CAM tissue directly beneath each filter disk may be resected and treated. The tissues may subsequently be washed approximately three times with PBS, placed in 35-mm Petri dishes (Nalge Nunc), and examined under a stereomicroscope at approximately 50× magnification or more. Digital images of CAM sections exposed to filters may be collected and quantified using a 3-charge-coupled device color video camera system and analyzed with Image-Pro software (Media Cybernetics) or equivalent software. Embodiments of the CAM system may not only index tumor-related angiogenesis, but permits spherical tumor growth of the implanted cells. Spherical growth may be important to the development of a hypoxic cell population that resemble tumor behavior clinically. Aggressive xenograft behavior in the CAM model may include metastasis to the chick embryo in the system.

Chain of integrin αvβ3 (P06756 31-889 limits assumed): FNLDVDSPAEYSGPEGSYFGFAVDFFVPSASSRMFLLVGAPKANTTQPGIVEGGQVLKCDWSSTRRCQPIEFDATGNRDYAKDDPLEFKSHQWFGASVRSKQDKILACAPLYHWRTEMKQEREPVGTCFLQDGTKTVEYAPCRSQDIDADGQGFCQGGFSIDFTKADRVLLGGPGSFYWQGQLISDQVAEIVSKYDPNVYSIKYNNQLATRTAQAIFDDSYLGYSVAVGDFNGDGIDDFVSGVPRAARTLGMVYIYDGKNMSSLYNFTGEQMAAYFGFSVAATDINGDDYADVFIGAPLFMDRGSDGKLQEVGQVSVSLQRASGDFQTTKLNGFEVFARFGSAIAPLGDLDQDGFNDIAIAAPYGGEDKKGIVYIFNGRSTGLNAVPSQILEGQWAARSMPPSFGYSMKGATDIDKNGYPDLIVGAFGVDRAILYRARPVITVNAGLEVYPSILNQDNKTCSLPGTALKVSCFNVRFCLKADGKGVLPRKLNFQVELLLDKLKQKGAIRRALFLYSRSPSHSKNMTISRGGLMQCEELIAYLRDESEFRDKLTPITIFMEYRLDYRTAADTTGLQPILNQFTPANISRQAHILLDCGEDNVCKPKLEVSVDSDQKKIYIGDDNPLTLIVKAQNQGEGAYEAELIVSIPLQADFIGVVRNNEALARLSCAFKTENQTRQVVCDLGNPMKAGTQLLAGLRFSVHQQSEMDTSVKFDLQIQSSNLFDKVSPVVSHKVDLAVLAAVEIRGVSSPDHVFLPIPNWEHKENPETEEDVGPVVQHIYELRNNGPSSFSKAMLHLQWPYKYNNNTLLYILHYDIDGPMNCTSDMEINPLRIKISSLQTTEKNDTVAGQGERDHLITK
Chain of integrin αvβ3 (P06756 891-1048 partner limits assumed): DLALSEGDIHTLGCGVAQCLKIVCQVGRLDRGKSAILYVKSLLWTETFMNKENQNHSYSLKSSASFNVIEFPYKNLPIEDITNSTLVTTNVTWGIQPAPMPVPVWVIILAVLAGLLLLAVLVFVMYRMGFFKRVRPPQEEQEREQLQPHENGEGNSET
Chain of integrin αvβ3 (P05106 27-788): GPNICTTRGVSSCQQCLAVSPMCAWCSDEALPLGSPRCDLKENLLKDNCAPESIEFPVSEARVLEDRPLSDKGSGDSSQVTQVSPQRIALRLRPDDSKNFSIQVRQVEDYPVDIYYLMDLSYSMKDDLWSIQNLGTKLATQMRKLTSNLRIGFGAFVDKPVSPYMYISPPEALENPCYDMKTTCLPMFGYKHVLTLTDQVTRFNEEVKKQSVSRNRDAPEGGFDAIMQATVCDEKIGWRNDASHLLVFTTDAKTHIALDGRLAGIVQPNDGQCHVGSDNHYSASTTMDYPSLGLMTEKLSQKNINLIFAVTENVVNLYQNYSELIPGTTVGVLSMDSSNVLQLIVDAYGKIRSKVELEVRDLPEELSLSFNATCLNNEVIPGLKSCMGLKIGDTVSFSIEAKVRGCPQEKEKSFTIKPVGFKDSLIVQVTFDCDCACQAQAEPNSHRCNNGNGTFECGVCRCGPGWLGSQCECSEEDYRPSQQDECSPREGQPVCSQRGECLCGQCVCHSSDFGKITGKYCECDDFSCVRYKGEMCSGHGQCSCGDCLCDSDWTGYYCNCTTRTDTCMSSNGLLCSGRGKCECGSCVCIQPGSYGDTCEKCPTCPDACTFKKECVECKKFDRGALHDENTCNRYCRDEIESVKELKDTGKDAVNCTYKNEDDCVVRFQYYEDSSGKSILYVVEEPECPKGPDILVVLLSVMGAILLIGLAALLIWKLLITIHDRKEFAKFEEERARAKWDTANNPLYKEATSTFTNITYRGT

Compound	Branch points ± SEM [3]	further results
Tetraiodothyroacetic acid [tetrac]		agonist activity at the integrin (integrin αvβ3): no agonist activity; binding of T4 and T3 to the integrin (integrin αvβ3): inhibits binding; angiogenic activity of bFGF, VEGF and other pro-angiogenic factors [1]: blocks the angiogenic activity; growth of glioma cells (glioma cells): arrest growth; growth of human breast cancer cells [2]: arrest growth
bFGF: basic fibroblast growth factor	184.6 ± 18.5	
N[C@@H](Cc1cc(I)c(Oc2ccc(O)c(I)c2)c(I)c1)C(=O)O [T3, 3,5,3′-triiodo-L-thyronine]	186.8 ± 16.4	
Angiotensin II (DRVYIHPF; Angiotensin-2; UniProt P01019 25-32, looked up) [small molecule that supports neovascularization; pro-angiogenic factor in the CAM assay]	103.2 ± 25.9	
N[C@@H](Cc1cc(I)c(Oc2cc(I)c(O)c(I)c2)c(I)c1)C(=O)O [T4, L-thyroxine]	119.2 ± 15.6	
VEGF	182.4 ± 8.4	
